# Assay: Stability of polymorph Form II of the besylate salt
# Format: physicochemical
# Details: exemplary Form II polymorph, solid form
# Procedure: In some embodiments, Form II of the besylate salt of compound 101 (2,4-Dichloro-N-[3,5-dichloro-4-(quinolin-3-yloxy)-phenyl]-benzenesulfonamide benzenesulfonate salt) is used. […] In some embodiments, the Form II polymorph can have a melting point between about 230 and 240° C. […] For example, particular Form II polymorphs can have major X-ray powder diffraction pattern peaks at 15, 19, 20.5, 23.5, 24.5, 25, 26.5, 29.5 and 30.5° 2θ using Cu Kα radiation. In certain embodiments, the Form II polymorph can have major X-ray powder diffraction pattern peaks at one, two, three, four, five, six, seven or eight of the X-ray powder diffraction pattern peaks at 15, 19, 20.5, 23.5, 24.5, 25, 26.5, 29.5 and 30.5° 2θ using Cu Kα radiation. In certain embodiments, the Form II polymorph of the invention can have both a melting point between about 230 and 240° C. and major X-ray powder diffraction pattern peaks at one, two, three, four, five, six, seven or eight of the X-ray powder diffraction pattern peaks at 15, 19, 20.5, 23.5, 24.5, 25, 26.5, 29.5 and 30.5° 2θ using Cu Kα radiation. In further embodiments, the Form II polymorph can have major infrared absorbance peaks at one, two, three, four, or five of the infrared absorbance peaks at 1573, 1469, 1459, 912, and 859 cm^−1.
structure (smiles),measurement,value
"O=S(=O)(Nc1cc(Cl)c(Oc2cnc3ccccc3c2)c(Cl)c1)c1ccc(Cl)cc1Cl.O=S(=O)(O)c1ccccc1 [2,4-Dichloro-N-[3,5-dichloro-4-(quinolin-3-yloxy)-phenyl]-benzenesulfonamide benzenesulfonate salt]",stability of the polymorph,surprising stability
